Reference: patent US20190211099A1, “METHODS AND COMPOSITIONS FOR TREATING CANCER WITH SIGLEC-9 ACTIVITY MODULATORS” (KING'S COLLEGE LONDON, priority 2016, published 2019)

Legend:
Type in all cases: cell-based, human
isolated monocytes = assay: Factors released by monocytes after MUC1-ST treatment (protein array, ELISA); settings: 100 μg/10^6 cells MUC1-ST, 48 hours
Method: (§1) ELISAs for IL-6, IL-12p70, TGF-β1, PAI-1, M-CSF, EGF, SHP2, phospho-SHP2 (Biotechne) were all carried out as per manufacturer's instructions.
Recombinant MUC1-ST was bound to monocytes and the factors released determined using a protein array as follows. Briefly, isolated monocytes were treated with 100 μg/10^6 cells MUC1-ST for 4 hours at 4° C., washed and incubated at 37° C. for 48 hours in AIM-V serum-free media. Supernatant was taken and cytokine production was assessed using a 102 protein array (Bio-Techne).

[1] = tested on: monocyte derived macrophages; assay: Factors secreted by monocyte derived macrophages treated with MUC1-ST (ELISA)
Method: as §1
Secreted proteins from monocyte derived macrophages were assayed by ELISA as described in Example 2. […] All of these factors are associated with tumor progression (Duffy et al. (2014) BREAST CANCER RES. 16: 428; Jensen et al. (2002) CLIN. CANCER RES. 9:4423-4434). […] It has been discovered that MUC1-ST/Siglec-9 ‘educated’ monocytes and macrophages have a unique secretome.

allogeneic CD8+ T cells = assay: Co-culture of MUC1-ST treated macrophages with allogeneic CD8+ T cells; settings: macrophages educated with MUC1-ST
Method: Thereafter, the effects of MUC1-ST educated macrophages on T cell function were analyzed. Macrophages treated with MUC1-ST were co-cultured with eFluor® 670 labelled allogeneic CD8+ T cells in the presence of absence of anti-Siglec-9 antibody or isotype control. Indeed, macrophages that had been educated with MUC1-ST were decreased in their ability to stimulate the proliferation of allogeneic CD8 T cells (FIG. 11E). […] (FIG. 11F). This profile of expression and functional activity is indicative of tumor-associated macrophages (TAMs), which play a role in promoting tumor progression (Noy et al. (2014) IMMUNITY 41: 49-61; Sousa et al. (2015) BREAST CANCER RES. 17: 101; Qian et al. (2010) CELL 141: 39-45).

- secretion of M-CSF, PAI-1, chitinase 3-like-1 and EGF [1]: increased secretion
Substance: NeuAcα2,3Galβ1-3GalNAc linked via a Ser/Thr of MUC1 [MUC1-ST]
- secretion of factors associated with inflammation and tumor progression (IL-6, M-CSF, PAI-1 validated by ELISA) (isolated monocytes): induced
- CD8 IFNγ secretion (allogeneic CD8+ T cells): decreased
- ability of macrophages to stimulate proliferation of allogeneic CD8 T cells (allogeneic CD8+ T cells): decreased
